How the values were obtained:
mouse = test: Porsolt's Forced Swim Test after subchronic oral gavage; assay type: in vivo; conditions: 32 mg/kg p.o., −24, −5, −1 h
Procedure: This test, which detects antidepressant activity, was performed in the same manner as that described in example 7, except that the route of administering the compound and the doses were different. Oregano extract 4 was evaluated at 3 doses (75, 150, and 300 mg/kg), administered orally (p.o.) 24, 5, and 1 hour before the test, and compared with a vehicle control group. The thus administered […] was dissolved in tocopherol-stripped corn oil “vehicle”). The control group was administered vehicle (p.o.), while imipramine (32 mg/kg, p.o.; dissolved in water) was administered to a separate group as reference compound, 24, 5 and 1 h prior to the test.
Mice were individually placed in cylinders (Height=24.5 cm, Diameter=19.5 cm) containing 13.5 cm water (22° C.) from which they could not escape. The mice were placed in the water for 6 minutes, automatically viewed via a video camera and monitored by a commercially available software system (VideoMot2, TSE Systems GmbH, Germany), and the duration of immobility during the last 4 minutes was measured.
10 mice were studied per each of the five groups. Data were analyzed by comparing the treated groups and the positive control group with the vehicle group using Analysis of Variance (ANOVA) and the Bonferroni post-hoc test.

mice = test: Porsolt's Forced Swim Test (Behavioral Despair Test), i.p.; assay type: in vivo, mouse; conditions: 32 mg/kg i.p., −30 min; 15 mice
Procedure: The test, which detects antidepressant activity, was carried out as described by Porsolt et al supra. Mice which are forced to swim in a situation from which they cannot escape rapidly become immobile. Antidepressants decrease the duration of immobility.
Mice were individually placed in cylinders (Height=24 cm, Diameter=13 cm) containing 10 cm water (22° C.) from which they could not escape. The mice were placed in the water for 6 minutes and the duration of immobility during the last 4 minutes was measured.
15 mice were studied per each of the four groups.
Oregano extract 1 was evaluated at 3 doses (10, 30 and 60 mg/kg), administered i.p. 30 minutes before the test, and compared with a control group, administered vehicle in the same manner. The thus administered […] was dissolved in vehicle (saline solution containing 3% (v/v) DMSO and 3% (v/v) Tween® 80). Venlafaxine (16 mg/kg, i.p.), as comparison substance, and imipramine (32 mg/kg, i.p.), as reference compound, were administered under the same experimental conditions.
Data were analyzed by comparing the treated groups with the control group using unpaired Student's t tests and are presented in Table 3.

[1] = molecular target: T1, human serotonin re-uptake transporter (hSERT) (Homo sapiens, UniProt P31645); test: Serotonin uptake inhibition in HEK-293 cells expressing hSERT; assay type: cell-based; conditions: single compounds; transfected HEK-293 cells, 20 nM 3H-serotonin, 30 minutes; read-out: IC50 for tritiated serotonin uptake
T1 construct: host or cells: HEK-293
Procedure: HEK-293 cells stably expressing the human serotonin re-uptake transporter (hSERT) were obtained from R. Blakely, Vanderbilt University, USA. The cells were routinely grown in Dulbecco's Modified Eagle's Medium, purchased from Bioconcept, Allschwil, Switzerland containing 10% fetal calf serum, penicillin, streptomycin, L-glutamine and the antibiotic G418 and passaged by trypsinisation. 1 day prior to the assay cells were seeded in the above mentioned medium. […] Serotonin uptake into the cells was determined by addition of radio-labeled (3H) serotonin (Amersham Biosciences GE Healthcare, Slough, UK) to a concentration of 20 nM, and incubation for 30 minutes at room temperature. Following removal of unincorporated label by gentle washing three times with the above buffer, incorporated serotonin was quantified by liquid scintillation counting.

[2] = molecular target: T2, human dopamine transporter (hDAT) (Homo sapiens, UniProt Q01959); assay type: cell-based; conditions: transfected CHO-Ki cells, 50 nM [3H]Dopamine; n = 2; read-out: IC50 for inhibition of dopamine reuptake
T2 construct: expressed in transfected cells; host or cells: CHO-Ki (CHO-K1)
Procedure: CHO-Ki/hDAT cells expressing the human dopamine transporter (hDAT) were plated before the assay. Cells (2×10^5/ml) were incubated with oregano extract and/or vehicle in modified Tris-HEPES buffer pH 7.1 at 25° C. for 20 minutes before addition of 50 nM [^3H]Dopamine for 10 minutes. Specific signal was determined in the presence of 10 μM nomifensine. Cells were then solubilized with 1% SDS lysis buffer. Reduction of [^3H]Dopamine uptake by 50 percent or more (≧50%) relative to vehicle controls indicates significant inhibitory activity.

T1 sequence (P31645 whole entry): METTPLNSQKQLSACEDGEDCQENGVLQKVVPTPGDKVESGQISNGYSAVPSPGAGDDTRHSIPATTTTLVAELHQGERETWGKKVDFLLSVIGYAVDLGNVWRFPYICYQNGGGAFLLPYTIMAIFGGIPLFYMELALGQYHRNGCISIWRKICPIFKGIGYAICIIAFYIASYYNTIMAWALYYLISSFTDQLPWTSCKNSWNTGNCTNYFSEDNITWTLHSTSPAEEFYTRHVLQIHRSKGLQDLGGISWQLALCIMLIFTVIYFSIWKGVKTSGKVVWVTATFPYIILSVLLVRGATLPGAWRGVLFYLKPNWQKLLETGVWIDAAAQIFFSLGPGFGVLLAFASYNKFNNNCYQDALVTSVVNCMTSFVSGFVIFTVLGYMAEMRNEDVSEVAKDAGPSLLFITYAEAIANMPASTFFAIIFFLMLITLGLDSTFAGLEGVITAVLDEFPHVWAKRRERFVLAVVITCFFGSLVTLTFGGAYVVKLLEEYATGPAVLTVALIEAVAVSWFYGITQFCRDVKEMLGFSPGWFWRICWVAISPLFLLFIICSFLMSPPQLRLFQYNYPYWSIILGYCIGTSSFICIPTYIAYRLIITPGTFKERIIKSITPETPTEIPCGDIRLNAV
T2 sequence (Q01959 whole entry): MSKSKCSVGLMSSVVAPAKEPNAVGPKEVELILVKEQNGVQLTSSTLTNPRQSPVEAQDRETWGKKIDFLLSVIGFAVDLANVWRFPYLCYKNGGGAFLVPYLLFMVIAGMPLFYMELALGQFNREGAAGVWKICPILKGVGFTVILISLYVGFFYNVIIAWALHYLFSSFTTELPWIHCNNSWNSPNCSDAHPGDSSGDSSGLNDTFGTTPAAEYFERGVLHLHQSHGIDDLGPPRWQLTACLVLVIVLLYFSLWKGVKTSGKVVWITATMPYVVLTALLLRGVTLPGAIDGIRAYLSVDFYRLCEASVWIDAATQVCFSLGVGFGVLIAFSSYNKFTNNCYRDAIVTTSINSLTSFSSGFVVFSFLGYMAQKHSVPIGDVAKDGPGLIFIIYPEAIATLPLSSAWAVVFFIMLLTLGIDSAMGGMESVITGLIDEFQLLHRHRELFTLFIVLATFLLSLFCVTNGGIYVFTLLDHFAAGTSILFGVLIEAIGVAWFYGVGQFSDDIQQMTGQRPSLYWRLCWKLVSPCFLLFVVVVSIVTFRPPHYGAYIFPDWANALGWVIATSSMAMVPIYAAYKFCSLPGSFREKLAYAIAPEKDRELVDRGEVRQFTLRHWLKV

| Compound | DURATION OF IMMOBILITY % change from control (mouse) [%] | DURATION OF IMMOBILITY (s) Mean ± s.e.m. (mouse; 10 mice) [s] | DURATION OF IMMOBILITY % change from control (mice) [%] | DURATION OF IMMOBILITY (s) Mean ± s.e.m. (mice) [s] | IC50 [1] [µM] | IC50 [2] [µM] |
| --- | --- | --- | --- | --- | --- | --- |
| CN(C)CCCN1c2ccccc2CCc2ccccc21 [Imipramine] | −50 | 64.59 ± 8.26 | −70 | 49.7 ± 7.9 | – | – |
| Cc1ccc(C(C)C)c(O)c1 [Thymol] | – | – | – | – | 5 | – |
| Cc1cc(O)c(C(C)C)cc1O [Thymoquinol] | – | – | – | – | 26.6 | 65.6 ± 1.2 |

From patent US20110070326A1, “OREGANO EXTRACT AND ITS COMPONENTS FOR ENHANCING VIGILANCE” (DSM IP ASSETS B.V., priority 2006, published 2011)
